Results on 16 molecules are retold here after patent publication EP1147080B1 (Wyeth Holdings Corporation, priority 1999, dated 2000).

Read-outs that look alike come from different tables or passages of the source.

Experiment [1] concerns the target MMP-13 (Homo sapiens, UniProt P45452). The experiment can be described thus: MMP-13 inhibition (thiopeptide or fluorescent peptide substrate). The format is biochemical. The settings on record: for inhibition at 10 µM: % @ 10µM per footnote a. From the text:
Alternatively, a fluorescent peptide substrate is used.

Experiment [2] has as its target T1, MMP-1 (Homo sapiens, UniProt P03956).
T1 sequence (P03956 100-469): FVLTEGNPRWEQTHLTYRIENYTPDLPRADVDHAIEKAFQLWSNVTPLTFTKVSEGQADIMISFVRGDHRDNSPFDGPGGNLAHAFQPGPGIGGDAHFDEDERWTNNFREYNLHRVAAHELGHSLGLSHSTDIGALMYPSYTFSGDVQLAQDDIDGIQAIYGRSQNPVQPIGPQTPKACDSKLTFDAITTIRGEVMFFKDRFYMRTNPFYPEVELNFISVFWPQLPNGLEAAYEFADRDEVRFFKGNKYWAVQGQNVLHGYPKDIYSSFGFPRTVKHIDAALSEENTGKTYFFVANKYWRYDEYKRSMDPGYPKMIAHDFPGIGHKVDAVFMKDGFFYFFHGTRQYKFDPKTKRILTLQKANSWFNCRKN
The experiment in a line: MMP-1 inhibition (thiopeptide or fluorescent peptide substrate). The settings on record: for inhibition at 10 µM: read-out: MMP1.
Procedure: (§1) The enzyme activity is measured by the rate of the color increase. The thiopeptide substrate is made up fresh as a 20 mM stock in 100% DMSO and the DTNB is dissolved in 100% DMSO as a 100 mM stock and stored in the dark at room temperature. Both the substrate and DTNB are diluted together to 1 mM with substrate buffer (50 mM HEPES pH 7.5, 5 mM CaCl2) before use. The stock of enzyme is diluted with buffer (50 mM HEPES, pH 7.5, 5 mM CaCl2, 0.02% Brij) to the desired final concentration.
(§2) Alternatively, a fluorescent peptide substrate is used. In this test procedure, the peptide substrate contains a fluorescent group and a quenching group. Upon cleavage of the substrate by an MMP, the fluorescence that is generated is quantitated on the fluorescence plate reader. The assay is run in HCBC assay buffer (50mM HEPES, pH 7.0, 5 mM Ca^+2, 0.02% Brij, 0.5% Cysteine), with human recombinant MMP-1, MMP-9, or MMP-13. The substrate is dissolved in methanol and stored frozen in 1 mM aliquots. For the assay, substrate and enzymes are diluted in HCBC buffer to the desired concentrations. Compounds are added to the 96 well plate containing enzyme and the reaction is started by the addition of substrate.
(§3) For either the thiopeptide or fluorescent peptide test procedures, the slope of the line is calculated and represents the reaction rate. […] The mean (x±sem) of the control rate is calculated and compared for statistical significance (p<0.05) with drug-treated rates using Dunnett's multiple comparison test.

For experiment [3], the target named is MMP-9 (Homo sapiens, UniProt P14780). The experiment in a line: MMP-9 inhibition (thiopeptide or fluorescent peptide substrate). The settings on record: for inhibition at 10 µM: read-out: MMP9.
Procedure: as §1, §2, §3
The target in experiment [4] is TNF-α converting enzyme (TACE) (Homo sapiens, UniProt P78536). The experiment can be described thus: Test procedure for measuring TACE inhibition (fluorescent peptidyl substrate). The format is biochemical.
Experiment [5] has as its system THP-1 cells. The experiment can be described thus: Human monocytic THP-1 cell differentiation assay for soluble proteins (THP soluble protein assay), LPS-stimulated, TNF-α ELISA. The class given is cell-based. The settings on record: for inhibition at 3 µM: Homo sapiens, THP-1; at 3 uM; percent change from vehicle positive control; read-out: TNFalpha at 3 uM) THP (percent change); for THP (% inhibition): Table 1, concentration not given. In general terms: ELISA stands for enzyme-linked immunosorbent assay.

Setting [6] is: second table, IC50 (nM) per footnote a.

TNF-α converting enzyme (TACE), sequence (P78536 215-824): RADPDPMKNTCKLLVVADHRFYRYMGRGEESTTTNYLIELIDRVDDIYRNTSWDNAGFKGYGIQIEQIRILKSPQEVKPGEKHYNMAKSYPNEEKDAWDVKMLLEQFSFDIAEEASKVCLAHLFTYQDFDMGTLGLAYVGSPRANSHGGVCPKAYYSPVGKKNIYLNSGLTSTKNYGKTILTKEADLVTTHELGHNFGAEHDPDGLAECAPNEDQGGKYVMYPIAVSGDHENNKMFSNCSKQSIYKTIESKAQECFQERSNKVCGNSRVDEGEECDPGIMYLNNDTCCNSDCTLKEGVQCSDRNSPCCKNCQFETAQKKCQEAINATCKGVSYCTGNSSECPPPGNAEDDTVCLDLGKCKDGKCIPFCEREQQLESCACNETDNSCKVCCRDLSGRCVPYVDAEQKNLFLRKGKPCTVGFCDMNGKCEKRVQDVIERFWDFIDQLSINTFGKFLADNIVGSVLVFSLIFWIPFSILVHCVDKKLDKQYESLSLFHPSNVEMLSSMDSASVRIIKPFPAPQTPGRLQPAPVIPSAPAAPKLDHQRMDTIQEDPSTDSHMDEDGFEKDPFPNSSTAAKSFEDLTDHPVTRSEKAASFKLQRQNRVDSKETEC
MMP-9, sequence (P14780 94-707): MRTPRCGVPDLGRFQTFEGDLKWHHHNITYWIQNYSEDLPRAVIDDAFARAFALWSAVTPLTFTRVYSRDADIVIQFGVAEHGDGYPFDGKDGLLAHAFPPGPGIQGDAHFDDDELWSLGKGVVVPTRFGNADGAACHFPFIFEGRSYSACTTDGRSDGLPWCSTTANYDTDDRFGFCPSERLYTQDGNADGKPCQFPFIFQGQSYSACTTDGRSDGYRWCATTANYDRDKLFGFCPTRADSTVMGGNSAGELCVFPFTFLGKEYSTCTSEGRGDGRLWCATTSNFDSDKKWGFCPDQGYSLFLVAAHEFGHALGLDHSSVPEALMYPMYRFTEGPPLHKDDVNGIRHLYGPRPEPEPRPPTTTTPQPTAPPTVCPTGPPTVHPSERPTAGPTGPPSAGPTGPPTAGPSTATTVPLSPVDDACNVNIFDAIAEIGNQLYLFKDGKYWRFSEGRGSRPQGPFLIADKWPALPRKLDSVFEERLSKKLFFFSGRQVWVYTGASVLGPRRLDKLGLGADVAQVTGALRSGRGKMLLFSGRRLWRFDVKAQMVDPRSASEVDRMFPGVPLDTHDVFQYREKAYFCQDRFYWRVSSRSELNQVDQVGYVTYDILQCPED

For the molecule `CC#CCOc1ccc(S(=O)(=O)C(C(=O)NO)C(C)C)cc1` (stereo not shown) [Example 110, 2-{[4-{2-butynyloxy)phenyl]sulfonyl}-2-isopropyl-N-hydroxyacetamide], the IC50 in experiment [1] (IC50, read-out: MMP13) was 1260 nM; in experiment [3], 5140 nM; in experiment [4] (setting [6]), 17 nM. Moreover, the inhibition at 10 µM in experiment [2] was found to be 39.6%. Besides, the inhibition at 3 µM in experiment [5] was found to be 25%.

With `CC#CCOc1ccc(SC(C(=O)NO)c2ccc(Cl)cc2)cc1` (stereo not shown) [Example 80, 2-{[4-(2-butynyloxy)phenyl]sulfanyl}-2-(4-chlorophenyl)-N-hydroxyacetamide], the inhibition at 10 µM worked out at 48.8% in experiment [1] (read-out: MMP13), 0% in experiment [2] and 10.9% in experiment [3]. In experiment [4] (setting [6]), this molecule had an IC50 of 102 nM. For the same molecule, in experiment [5], the inhibition at 3 µM worked out at 4%.

As for `CC#CCOc1ccc([S+]([O-])[C@@H](C(=O)NO)c2ccccc2)cc1` (stereo partly shown) [Example 112, R-2-{[4-(2-butynyloxy)phenyl]sulfinyl}-2-phenyl-N-hydroxyacetamide], the inhibition at 10 µM was 23.6% in experiment [1] (read-out: MMP13), 9.9% in experiment [2] and 8.2% in experiment [3]. The IC50 in experiment [4] (setting [6]) turned out to be 28 nM. For the same molecule, the inhibition at 3 µM in experiment [5] is 15%.

As to `CC#CCOc1ccc([S@@+]([O-])[C@@H](CCCCCC)C(=O)NO)cc1` [Example 8, (S)-2-[(S)-[4-(2-Butynyloxy)phenylsulfinyl)]-N-hydroxyoctanamide], the IC50 amounted to 150 nM in experiment [1] (Table 1, read-out: MMP13 IC50); 3200 nM in experiment [2]; 1000 nM in experiment [3]; 12.4 nM in experiment [4] (Table 1). Also, in experiment [5], the “THP (% inhibition)” value amounted to 35%.

As for `CC#CCOc1ccc([S+]([O-])C(C(=O)NO)C2CCCCC2)cc1` (stereo not shown) [Example 74, 2-{[4-(2-butynyloxy)phenyl]sulfinyl}-2-cyclohexyl-N-hydroxyacetamide], the IC50 was found to be 93.5 nM in experiment [1] (IC50, read-out: MMP13); 1500 nM in experiment [2]; 336 nM in experiment [3]; 52 nM in experiment [4] (setting [6]). The inhibition at 3 µM in experiment [5] was determined as 31%.

Regarding `CC#CCOc1ccc(SC(CCCCCC)C(=O)NO)cc1` (stereo not shown) [Example 6, 2-(4-But-2-ynyloxy-phenylsulfanyl)-octanoic acid hydroxamide], the IC50 in experiment [1] (Table 1, read-out: MMP13 IC50) was 2000 nM; in experiment [2], 15000 nM; in experiment [3], 3000 nM; in experiment [4] (Table 1), 105 nM. Also, the “THP (% inhibition)” value in experiment [5] stood at 5%.

Consider `CC#CCOc1ccc(SC(C(=O)NO)C(C)C)cc1` (stereo not shown) [Example 107, 2-{[4-(2-Butynyloxy)phenyl]sulfanyl}-2-isopropyl-N-hydroxyacetamide], for which the inhibition at 10 µM in experiment [1] (read-out: MMP13) is 59.4%; in experiment [2] it was 2.8%; in experiment [3], 56.8%. The IC50 in experiment [4] (setting [6]) came to 157 nM. For the same molecule, the inhibition at 3 µM in experiment [5] is -13%.

Turning to `CC#CCOc1ccc([S@+]([O-])[C@@H](CCCCCC)C(=O)NO)cc1` [Example 7, (S)-2-[(R)-[4-(2-Butynyloxy)phenylsulfinyl)]-N-hydroxyoctanamide], the IC50 in experiment [1] (Table 1, read-out: MMP13 IC50) is 900 nM; in experiment [2] it was 3000 nM; in experiment [3] it was 1500 nM; in experiment [4] (Table 1), 4.3 nM. In experiment [5], the “THP (% inhibition)” value is reported as 67%.

On to `CC#CCOc1ccc(S(=O)(=O)C(C)(Cc2cccnc2)C(=O)NO)cc1` (stereo not shown) [Example 3, 2-(4-But-2-ynyloxy-phenylsulfonyl)-N-hydroxy-2-methyl-3-pyridin-3-ylpropionamide], for which the IC50 in experiment [1] (Table 1, read-out: MMP13 IC50) was 69 nM; in experiment [2] it was 1400 nM; in experiment [3] it was 142 nM; in experiment [4] (Table 1) it was 15.7 nM. In addition, in experiment [5], the “THP (% inhibition)” value is on record as 14%.

As to `CC#CCOc1ccc(S(=O)(=O)C(C)(Cc2ccc(OCCN3CCCCC3)cc2)C(=O)NO)cc1` (stereo not shown) [Example 1, 2-(4-But-2-ynyloxy-benzenesulfonyl)-N-hydroxy-2-methyl-3-[4-(2-piperidin-1-yl-ethoxy)-phenyl]-propionamide], the IC50 in experiment [1] (Table 1, read-out: MMP13 IC50) came to 200 nM; in experiment [2], 2000 nM; in experiment [3], 180 nM; in experiment [4] (Table 1), 191 nM. Also, in experiment [5], the “THP (% inhibition)” value was determined as 25%.

In the case of `CC#CCOc1ccc(SC(C(=O)NO)c2ccccc2)cc1` (stereo not shown) [Example 111, 2-{[4-(2-Butynyloxy)phenyl]sulfanyl}-2-phenyl-N-hydroxyacetamide], the inhibition at 10 µM is 0.8% in experiment [1] (read-out: MMP13), 6.6% in experiment [2] and 13.5% in experiment [3]. In experiment [4] (setting [6]), this molecule yielded an IC50 of 50 nM. The inhibition at 3 µM in experiment [5] was -10%.

With `CC#CCOc1ccc(S(=O)(=O)C(CCCCCC#N)C(=O)NO)cc1` (stereo not shown) [Example 72, 2-{[4-(2-butynyloxy)phenyl]sulfonyl}-7-cyano-N-hydroxy heptanamide], the IC50 came out at 341 nM in experiment [1] (IC50, read-out: MMP13); 1360 nM in experiment [3]; 14.2 nM in experiment [4] (setting [6]). In addition, the inhibition at 10 µM in experiment [2] is 46.2%. Further, in experiment [5], the inhibition at 3 µM is 54%.

With `CC#CCOc1ccc(S(=O)(=O)C(C(=O)NO)c2ccc(F)cc2)cc1` (stereo not shown) [Example 97, 2-{[4-(2-butynyloxy)phenyl]sulfonyl}-2-(4-fluorophenyl)-N-hydroxyacetamide], the values for the inhibition at 10 µM in experiment [1] (read-out: MMP13), in experiment [2] and in experiment [3] were 47.4%, 0.5% and 0.5%, respectively. Further, the IC50 in experiment [4] (setting [6]) came out at 109 nM. Further, the inhibition at 3 µM in experiment [5] worked out at 10%.

As to `CC#CCOc1ccc(S(=O)(=O)C(C(=O)NO)c2ccc(Cl)cc2)cc1` (stereo not shown) [Example 82, 2-{[4-(2-butynyloxy)phenyl]sulfonyl}-2-(4-chlorophenyl)-N-hydroxyacetamide], the IC50 in experiment [1] (IC50, read-out: MMP13) was 5060 nM; in experiment [4] (setting [6]), 108 nM. Besides, the inhibition at 10 µM in experiment [2] amounted to 27.1%; in experiment [3], 38%. The inhibition at 3 µM in experiment [5] stood at 14%.

Regarding `CC#CCOc1ccc(S(=O)(=O)C(C)(Cc2ccc(-c3ccccc3)cc2)C(=O)NO)cc1` (stereo not shown) [Example 2, 3-Biphenyl-4-yl-2-(4-But-2-ynyloxy-phenylsulfonyl)-N-hydroxy-2-methyl-propionamide], the IC50 came out at 597 nM in experiment [1] (Table 1, read-out: MMP13 IC50); 2200 nM in experiment [2]; 207 nM in experiment [3]; 207 nM in experiment [4] (Table 1). Moreover, in experiment [5], the “THP (% inhibition)” value turned out to be 5%.

For `CC#CCOc1ccc([S+]([O-])[C@H](C(=O)NO)c2ccc(OC)cc2)cc1` (single isomer, unassigned) [Example 78], the inhibition at 10 µM in experiment [1] (read-out: MMP13) was 54.5%; in experiment [2] it was 5.9%; in experiment [3], 32.7%. In experiment [5], the inhibition at 3 µM turned out to be 13%.
